Data taken from patent publication US8354436B2 (4SC Discovery GmbH, priority 2011, dated 2013).
Like-named read-outs stand apart in the source and are kept apart here.

Columns and labels:
Format in all cases: cell-based
Conditions in all cases: 48 hours
[1] = test system: IL-17FF; test: IL-17FF production by PHA-stimulated human PBMC (human IL-17F ELI-Pair)
Method: Analysis of Proliferation of and Cytokine Production by Human PBMC Stimulated with PHA
Peripheral blood mononuclear cells (PBMC) from healthy human donors were purified using Accuspin™ System-Histopaque-1077 (Sigma) according to the protocol recommended by the manufacturer. Purified PBMC were then washed twice with phosphate-buffered saline (PBS) and resuspended in RPMI1640 culture medium supplemented with 10% dialyzed heat inactivated fetal calf serum, 1.5 mM L-glutamine, 100 U penicillin/ml, and […] (all from PAN Biotech, Aidenbach, Germany). For stimulation, PBMC were seeded at 1×10^5 cells/well, activated with 2 μg/ml phytohaemagglutinin (PHA, Sigma) and incubated with the test compounds for 48 hours. IL-17A, IL-17F and INF-γ were then determined in the culture supernatant using a Luminex BioPlex system, following the manufacturer's instructions (BioRad, Munich, Germany). For screening, compounds were used at 10, 1, 0.1 and 0.01 μM. To determine the IC50, compounds were titrated semilogarithmically.
Cytokines were determined in the aforementioned culture supernatant using the following methods: IL-17AA/AF was measured using the Luminex BioPlex system (BioRad, Munich, Germany); IL-17AA using the human homodimer IL-17A ELISA Ready Set Go Kit from eBioscience (Frankfurt, Germany); IL-17FF using the human IL-17F ELI-Pair from Hölzel DiagnosticaGmBH (Köln, Germany); and IFN-γ using the OptEIA human IFN-g ELISA from BD Bioscience (Heidelberg, Germany), all following the manufacturer's instructions.

[2] = test system: IFN-γ; test: IFN-γ production by PHA-stimulated human PBMC (OptEIA human IFN-g ELISA)
Outline: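 Inhibition of PHA-driven (2 μg/ml) cytokine release from human PBMC at 1×10^5 cells/well, 48 h compound exposure. IC50 from semilog titrations.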

[3] = test system: PBMC from healthy human donors; test: T cell proliferation assay (PHA-stimulated human PBMC, BrdU ELISA)
Outline: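 Proliferation was quantified by BrdU ELISA 48 hours after starting culture of 1×10⁵ human PBMC per well with test compound and 2 μg/ml phytohaemagglutinin. Cells came from healthy donors via Ficoll separation and were kept in RPMI1640 with 10% dialysed heat-inactivated FCS.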

[4] = PHA-stimulated human PBMC, column B, read-out: IC50 (IL-17FF)
[5] = PHA-stimulated human PBMC, column C, read-out: IC50 (IFNγ)
[6] = PHA-stimulated human PBMC, column D, read-out: IC50 (Tcell proliferation)
[7] = human PBMC, 2 μg/ml PHA, read-out: B: IC50 (IL-17FF)
[8] = human PBMC, 2 μg/ml PHA, read-out: C: IC50 (IFNγ)
[9] = human PBMC, 2 μg/ml PHA, read-out: D: IC50 (Tcell proliferation)

Compound	IC50 [1, 4] [nM]	IC50 [2, 5] [nM]	IC50 [1, 7] [nM]	IC50 [2, 8] [nM]	IC50 [3, 6] [nM]	IC50 [3, 9] [nM]
CCOC(=O)c1c(-c2ccncc2F)noc1-c1cnn(-c2ccccc2Cl)c1C(F)(F)F [IB-13, ethyl 5-(1-(2-chlorophenyl)-5-(trifluoromethyl)-1H-pyrazol-4-yl)-3-(3-fluoropyridin-4-yl)isoxazole-4-carboxylate]	10 to 100	10 to 100	–	–	10 to 100	–
Fc1cccc(-n2ncc(-c3onc(-c4c(F)cccc4Cl)c3-c3nnc(C(F)(F)F)o3)c2C(F)(F)F)c1 [Example 6, 2-(3-(2-chloro-6-fluorophenyl)-5-(1-(3-fluorophenyl)-5-(trifluoromethyl)-1H-pyrazol-4-yl)isoxazol-4-yl)-5-(trifluoromethyl)-1,3,4-oxadiazole]	–	–	10 to 100	10 to 100	–	10 to 100
COC(=O)c1c(-c2c(F)cccc2Cl)noc1-c1cnn(-c2cccc(N)c2)c1C(F)(F)F [IB-92, methyl 5-(1-(3-aminophenyl)-5-(trifluoromethyl)-1H-pyrazol-4-yl)-3-(2-chloro-6-fluorophenyl)isoxazole-4-carboxylate]	10 to 100	10 to 100	–	–	10 to 100	–
COC(=O)c1c(-c2c(F)cccc2Cl)noc1-c1cnn(CC(F)(F)F)c1C(F)(F)F [Example I-65, methyl 3-(2-chloro-6-fluorophenyl)-5-(1-(2,2,2-trifluoroethyl)-5-(trifluoromethyl)-1H-pyrazol-4-yl)isoxazole-4-carboxylate]	10 to 100	10 to 100	–	–	10 to 100	–
CC(C)OC(=O)c1c(-c2c(F)cccc2Cl)noc1-c1cnn(-c2ccncc2)c1C(F)(F)F [IB-82, isopropyl 3-(2-chloro-6-fluorophenyl)-5-(1-(pyridin-4-yl)-5-(trifluoromethyl)-1H-pyrazol-4-yl)isoxazole-4-carboxylate]	10 to 100	10 to 100	–	–	10 to 100	–
COC(=O)c1c(-c2c(F)cccc2Cl)noc1-c1cnn(C(C)C)c1C(F)(F)F [Example I-66, methyl 3-(2-chloro-6-fluorophenyl)-5-(1-isopropyl-5-(trifluoromethyl)-1H-pyrazol-4-yl)isoxazole-4-carboxylate]	1000 to 10000	100 to 1000	–	–	1000 to 10000	–
O=C(c1c(-c2c(F)cccc2Cl)noc1-c1cnn(-c2cccc(F)c2)c1C(F)(F)F)N1CCOCC1 [Example I-127, (3-(2-chloro-6-fluorophenyl)-5-(1-(3-fluorophenyl)-5-(trifluoromethyl)-1H-pyrazol-4-yl)isoxazol-4-yl)(morpholino)methanone]	100 to 1000	100 to 1000	–	–	1000 to 10000	–
CON(C)C(=O)c1c(-c2c(F)cccc2Cl)noc1-c1cnn(-c2cccc(S(N)(=O)=O)c2)c1C(F)(F)F [IB-66, 3-(2-chloro-6-fluorophenyl)-N-methoxy-N-methyl-5-(1-(3-sulfamoylphenyl)-5-(trifluoromethyl)-1H-pyrazol-4-yl)isoxazole-4-carboxamide]	1000 to 10000	1000 to 10000	–	–	–	–
O=CNc1c(-c2c(F)cccc2Cl)noc1-c1cnn(-c2cccc(Cl)c2)c1C(F)(F)F [IB-48, N-(3-(2-chloro-6-fluorophenyl)-5-(1-(3-chlorophenyl)-5-(trifluoromethyl)-1H-pyrazol-4-yl)isoxazol-4-yl)formamide]	1000 to 10000	–	–	–	1000 to 10000	–
CON(C)C(=O)c1c(-c2c(F)cccc2Cl)noc1-c1cnn(-c2cccc(NC(C)=O)c2)c1C(F)(F)F [IB-87, 5-(1-(3-acetamidophenyl)-5-(trifluoromethyl)-1H-pyrazol-4-yl)-3-(2-chloro-6-fluorophenyl)-N-methoxy-N-methylisoxazole-4-carboxamide]	1000 to 10000	1000 to 10000	–	–	–	–
CNC(=O)c1c(-c2c(F)cccc2Cl)noc1-c1cnn(-c2ccccc2OC)c1C(F)(F)F [Example I-60, 3-(2-chloro-6-fluorophenyl)-5-(1-(2-methoxyphenyl)-5-(trifluoromethyl)-1H-pyrazol-4-yl)-N-methylisoxazole-4-carboxamide]	1000 to 10000	1000 to 10000	–	–	–	–
O=C(c1c(-c2c(F)cccc2Cl)noc1-c1cnn(-c2ccccc2F)c1C(F)(F)F)N1CCCC1 [Example I-22, (3-(2-chloro-6-fluorophenyl)-5-(1-(2-fluorophenyl)-5-(trifluoromethyl)-1H-pyrazol-4-yl)isoxazol-4-yl)(pyrrolidin-1-yl)methanone]	100 to 1000	100 to 1000	–	–	–	–
CC(=O)Nc1cccc(-n2ncc(-c3onc(-c4c(F)cccc4Cl)c3-c3nnc(C)o3)c2C(F)(F)F)c1 [Example B-11, N-(3-(4-(3-(2-chloro-6-fluorophenyl)-4-(5-methyl-1,3,4-oxadiazol-2-yl)isoxazol-5-yl)-5-(trifluoromethyl)-1H-pyrazol-1-yl)phenyl)acetamide]	–	–	1000 to 10000	100 to 1000	–	–
COC(=O)c1c(-c2c(F)cccc2Cl)noc1-c1cnn(-c2ccc([N+](=O)[O-])cc2)c1C(F)(F)F [Example I-69, methyl 3-(2-chloro-6-fluorophenyl)-5-(1-(4-nitrophenyl)-5-(trifluoromethyl)-1H-pyrazol-4-yl)isoxazole-4-carboxylate]	1000 to 10000	1000 to 10000	–	–	–	–
CCOC(=O)c1csc(-n2ncc(-c3onc(-c4c(F)cccc4Cl)c3C(=O)OC)c2C(F)(F)F)n1 [Example I-53, methyl 3-(2-chloro-6-fluorophenyl)-5-(1-(4-(ethoxycarbonyl)thiazol-2-yl)-5-(trifluoromethyl)-1H-pyrazol-4-yl)isoxazole-4-carboxylate]	1000 to 10000	1000 to 10000	–	–	–	–
COc1cc(OC)c(CNC(=O)c2c(-c3c(F)cccc3Cl)noc2-c2cnn(-c3ccccc3F)c2C(F)(F)F)c(OC)c1 [Example I-2, 3-(2-chloro-6-fluorophenyl)-5-(1-(2-fluorophenyl)-5-(trifluoromethyl)-1H-pyrazol-4-yl)-N-(2,4,6-trimethoxyben-zyl)isoxazole-4-carboxamide]	1000 to 10000	1000 to 10000	–	–	–	–

The next lines start with results.

IC50 [1, 4] [nM]	IC50 [2, 5] [nM]	IC50 [1, 7] [nM]	IC50 [2, 8] [nM]	Compound	IC50 [3, 6] [nM]	IC50 [3, 9] [nM]
1000 to 10000	1000 to 10000	–	–	CCOC(=O)c1c(-c2onc(-c3c(F)cccc3Cl)c2C(=O)OC)cnn1-c1ccc(F)cc1 [Example I-26, methyl 3-(2-chloro-6-fluorophenyl)-5-(5-(ethoxycarbonyl)-1-(4-fluorophenyl)-1H-pyrazol-4-yl)isoxazole-4-carboxylate]	1000 to 10000	–
1000 to 10000	1000 to 10000	–	–	CCOC(=O)c1c(-c2ccncc2F)noc1-c1cnn(-c2ccccn2)c1C(F)(F)F [IB-8]	1000 to 10000	–
–	–	< 10	< 10	Cc1csc(-c2c(-c3c(F)cccc3Cl)noc2-c2cnn(-c3cccc(Cl)c3)c2C(F)(F)F)n1 [Example 4]	–	< 10
1000 to 10000	–	–	–	CCOC(=O)c1c(-c2ccc(Cl)cc2)noc1-c1cnn(-c2cccc(Cl)c2)c1C(F)(F)F [Example I-77, ethyl 3-(4-chlorophenyl)-5-(1-(3-chlorophenyl)-5-(trifluoromethyl)-1H-pyrazol-4-yl)isoxazole-4-carboxylate]	1000 to 10000	–
1000 to 10000	1000 to 10000	–	–	CN(C)C(=O)c1c(-c2c(F)cccc2Cl)noc1-c1cnn(-c2ccccc2F)c1C(F)(F)F [Example I-20, 3-(2-chloro-6-fluorophenyl)-5-(1-(2-fluorophenyl)-5-(trifluoromethyl)-1H-pyrazol-4-yl)-N,N-dimethylisoxazole-4-carboxamide]	–	–
1000 to 10000	1000 to 10000	–	–	CNC(=O)c1c(-c2c(F)cccc2Cl)noc1-c1cnn(-c2ccncc2)c1C(F)(F)F [IB-58, 3-(2-chloro-6-fluorophenyl)-N-methyl-5-(1-(pyridin-4-yl)-5-(trifluoromethyl)-1H-pyrazol-4-yl)isoxazole-4-carboxamide]	–	–
1000 to 10000	–	–	–	CCOC(=O)c1c(-c2onc(-c3c(F)cccc3Cl)c2C(=O)OC)cnn1-c1cccc(Cl)c1Cl [Example I-9, methyl 3-(2-chloro-6-fluorophenyl)-5-(1-(2,3-dichlorophenyl)-5-(ethoxycarbonyl)-1H-pyrazol-4-yl)isoxazole-4-carboxylate]	1000 to 10000	–
1000 to 10000	1000 to 10000	–	–	CCOC(=O)c1c(-c2c(Cl)cncc2Cl)noc1-c1cnn(-c2cccc(F)c2)c1C(F)(F)F [IB-103, ethyl 3-(3,5-dichloropyridin-4-yl)-5-(1-(3-fluorophenyl)-5-(trifluoromethyl)-1H-pyrazol-4-yl)isoxazole-4-carboxylate]	–	–
